Experimental data published in US20010049373A1, “Materials and methods for killing nematodes and nematode eggs” (priority 2000, published 2001).
Values joined by “and” are separate entries in the source; they are usually repeats but may differ in a detail not shown here. Identical values can stand only once.

Key:
Format in all cases: in vivo
[1] = test system: gastrointestinal nematodes (trichostrongyle, Strongyloides, Trichuris, Nematodirus eggs); assay: Sheep Test I: fecal egg per gram (EPG) counts; settings: for % Change, Strongyles EPG-5 day vs EPG-pre, Total/Mean / Strongyles EPG-5 day (22-Jan), Total/Mean / % Change, Strongyles EPG-7 day vs EPG-pre, Total/Mean / Strongyles EPG-7 day (24-Jan), Total/Mean: group mean; for % Change, Strongyles EPG-5 day vs EPG-pre, Total/Mean / Strongyles EPG-5 day (22-Jan), Total/Mean / Strongyles EPG-5 day (22-Jan): 5 days after treatment; for % Change, Strongyles EPG-7 day vs EPG-pre, Total/Mean / Strongyles EPG-7 day (24-Jan), Total/Mean / % Change, Strongyles EPG-7 day vs EPG-pre / Strongyles EPG-7 day (24-Jan): 7 days after treatment; for Strongyles EPG-5 day (22-Jan) / % Change, Strongyles EPG-7 day vs EPG-pre / Strongyles EPG-7 day (24-Jan): individual sheep
Description: (§1) Sheep naturally infected with a variety of gastrointestinal nematodes are purchased from local sources and are transported to the test site. The animals are housed in a manner to preclude further infection by nematode larvae. The animals are evaluated for the presence of adequate nematode burdens by performing a standard fecal egg per gram (EPG) count. Eggs are differentiated into the following groups: trichostrongyle (strongyle), Strongyloides, Trichuris, or Nematodinis. Only sheep judged by the study parasitologist to have adequate nematode infections are retained as test subjects.
The sheep are fed good quality hay (no concentrated rations) and water ad libitum. Following a five-day acclimation period, the sheep are randomly assigned by EPG count into treatment groups which include non-treated Negative control (placebo); Positive Control (commercially available ivermectin for sheep): and various anthelmintic compounds of the present invention (test compound) dissolved in DMSO. The first replicate of 10 animals is randomly assigned to groups 1-10; the second replicate of 10 animals is randomly assigned to groups 1-10; and the third replicate of 10 animals is randomly assigned to groups 1-10. Thus 10 groups of 3 animals each is created.
The randomization is performed on fecal samples collected 24-48 hours prior to scheduled treatment. The EPG counts are performed according to Zimmerman Research SOP # NMEPG.99.01
On treatment day, the animals are weighed and divided into groups with three animals per group as follows:
(§2) The placebo (DMSO), the commercially available drug, and the test anthelmintic compounds are administered in a 3 ml volume by subcutaneous injection using a sterile syringe fitted with a proper needle. The animal is adequately immobilized for injection of the placebo, commercially available drug, or test anthelmintic compound.
Following treatment, the animals are observed at hourly intervals for the first 8 hours, then daily until necropsy. They will continue to be housed in a manner to prevent further nematode infections. Fecal samples are taken for EPG counts on the 5th day and 7th day after treatment.
Seven days following treatment the sheep are humanely slaughtered in accordance with the Guide for the Care and Use of Laboratory Animals (DHEW Publication No. 86-23). Necropsy procedures are according to Zimmerman Research SOP # NCRGIH.99.01, Necropsy for Helminth Recovery, specifically for gastrointestinal nematodes. Fecal samples are taken for EPG counts during the sample collection process on this day. All animals are necropsied, but only the animals from the experimental treatment groups that have a significant egg count reduction on day 5 or day 7 will have intestinal material collected for nematode recovery and identification.

[2] = test system: gastrointestinal nematodes (trichostrongyle, Strongyloides, Trichuris, Nematodirus eggs); assay: Sheep Test II: fecal egg per gram (EPG) counts; settings: for % Change, Strongyles EPG-5 day vs EPG-pre, Total/Mean / Strongyles EPG-5 day (22-May), Total/Mean / % Change, Strongyles EPG-7 day vs EPG-pre, Total/Mean / Strongyles EPG-7 day (24-May), Total/Mean: group mean; for % Change, Strongyles EPG-5 day vs EPG-pre, Total/Mean / Strongyles EPG-5 day (22-May), Total/Mean / Strongyles EPG-5 day (22-May): 5 days after treatment; for % Change, Strongyles EPG-7 day vs EPG-pre, Total/Mean / Strongyles EPG-7 day (24-May), Total/Mean / % Change, Strongyles EPG-7 day vs EPG-pre / Strongyles EPG-7 day (24-May): 7 days after treatment; for Strongyles EPG-5 day (22-May) / % Change, Strongyles EPG-7 day vs EPG-pre / Strongyles EPG-7 day (24-May): individual sheep
Description: as §1, with “Nematodiris.” for “Nematodinis.”
The sheep are fed good quality hay (no concentrated rations) and water ad libitum. Following a five day acclimation period, the sheep are randomly assigned by EPG count into the following treatment groups: Groups 1-9, various anthelmintic compounds of the present invention (test compound) dissolved in DMSO: Group 10, Positive Control (commercially available ivermectin for sheep); Group 11, non-treated Negative control (DMSO only). The first replicate of 1 I animals is randomly assigned to groups 1-1; the second replicate of 11 animals is randomly assigned to groups 1-11; and the third replicate of 11 animals is randomly assigned to groups 1-1. Thus 11 groups of 3 animals each are created.
The randomization is performed on fecal samples collected 24-48 hours prior to scheduled treatment. The EPG counts are performed according to Zimmerman Research SOP # NMEPG.99.01.
as §2, with “volume of DMSO” for “volume”, “a sterile” for “a proper”, “needle. The site of injection is clipped and swabbed with alcohol prior to injection.” for “needle.”, “or experimental” for “or test anthelmintic”
Following treatment, the animals are observed at hourly intervals for the first 8 hours, then daily until necropsy. They are housed in a manner to prevent further nematode infections.
On the fifth day following treatment, fecal samples are obtained from each animal, properly labeled and used for EPG counts.
Seven days following treatment, all the sheep are weighed and humanely slaughtered in accordance with the Guide for the Care and Use of Laboratory Animals (DHEW Publication No. 86-23). Necropsy procedures are according to Zimmerman Research SOP # NCRGIH.00.01, Necropsy for Helminth Recovery, specifically for gastrointestinal nematodes. Fecal samples are taken for EPG counts during the sample collection process on this day.

[3] = test system: Caenorhabditis elegans; assay: HTS runs (initial and follow-up): mOD, % Run and visual score (Table 3)
Description: The nematicidal activity of anthelmintic Compositions 48-118 were determined in accordance with the procedure outlined in Example 2.

## 22,23-dihydroavermectin B1 [ivermectin]
[1]; Ivermectin .2 mg/kg
  % Change, Strongyles EPG-5 day vs EPG-pre, Total/Mean: 99.62%
  Strongyles EPG-5 day (22-Jan), Total/Mean: 3.33 EPG
  % Change, Strongyles EPG-7 day vs EPG-pre, Total/Mean: 100.00%
  Strongyles EPG-7 day (24-Jan), Total/Mean: 0.00 EPG
  Strongyles EPG-5 day (22-Jan): 10 EPG and 0 EPG (2×)
  % Change, Strongyles EPG-7 day vs EPG-pre: 100.00%
  Strongyles EPG-7 day (24-Jan): 0 EPG
[2]; Ivermectin 200 mcg/kg
  % Change, Strongyles EPG-5 day vs EPG-pre, Total/Mean: 100.00%
  Strongyles EPG-5 day (22-May), Total/Mean: 0.00 EPG
  % Change, Strongyles EPG-7 day vs EPG-pre, Total/Mean: 100.00%
  Strongyles EPG-7 day (24-May), Total/Mean: 0.00 EPG
  Strongyles EPG-5 day (22-May): 0 EPG
  % Change, Strongyles EPG-7 day vs EPG-pre: 100.00%
  Strongyles EPG-7 day (24-May): 0 EPG

## CCC1CCCCN1c1cc(Oc2ccc3oc4ccccc4c3c2)ncn1 (stereo not shown) [AKC 109]
[1]; AKC 109 1.4 mg/kg
  % Change, Strongyles EPG-5 day vs EPG-pre, Total/Mean: 76.43%
  Strongyles EPG-5 day (22-Jan), Total/Mean: 206.67 EPG
  % Change, Strongyles EPG-7 day vs EPG-pre, Total/Mean: 85.55%
  Strongyles EPG-7 day (24-Jan), Total/Mean: 126.67 EPG
[1]; AKC 109 1.4 mg/kg, 1.4 mg/kg
  Strongyles EPG-5 day (22-Jan): 30 EPG and 590 EPG and 0 EPG
  % Change, Strongyles EPG-7 day vs EPG-pre: 84.30% and −195.00% and 100.00%
  Strongyles EPG-7 day (24-Jan): 380 EPG and 0 EPG
[2]; AKC 109 .8 mg/kg
  % Change, Strongyles EPG-5 day vs EPG-pre, Total/Mean: 51.49%
  Strongyles EPG-5 day (22-May), Total/Mean: 245.00 EPG
  % Change, Strongyles EPG-7 day vs EPG-pre, Total/Mean: 50.50%
  Strongyles EPG-7 day (24-May), Total/Mean: 250.00 EPG
  Strongyles EPG-5 day (22-May): 360 EPG and 130 EPG
  % Change, Strongyles EPG-7 day vs EPG-pre: 63.93% and 30.00%
  Strongyles EPG-7 day (24-May): 220 EPG and 280 EPG
[3]; Follow-up HTS Run
  Follow-up HTS Run % Run: 121%
  Follow-up HTS Run Visual Score: L4/AD/B!
  Follow-up HTS Run mOD: 163 mOD
[3]; Initial HTS Run
  Initial HTS Run % Run: 132%
  Initial HTS Run Visual Score: 1AD/B!
  Initial HTS Run mOD: 258 mOD
